Experiment [1] has as its system TNBS-induced colitis in mice. As to the kind of experiment: TNBS-induced colitis in mice. It is filed as in vivo. As for the experimental part: On Day 0 of the study TNBS (200 μL) is administered intra-colonically via a plastic catheter followed by BID dosing of the vehicle, reference or test compound for 2 or 4 days. During the study animals are weighed every day and stool observations are made and recorded as a score, based on stool consistency. At the time of sacrifice on Day 2 (or Day 4) the large intestine is removed and the length and weight recorded. Sections of the colon are taken for either MPO analysis to determine neutrophil infiltration or for histopathology involving scoring to determine disease severity.

A further experiment has as its system d-U937 cells. Nature of the experiment: LPS-induced TNFα/IL-8 release in d-U937 cells. It is filed as cell-based. The conditions noted are these: Homo sapiens, dU937, LPS-stimulated d-U937 cells. As for the experimental part:
U937 cells, a human monocytic cell line, are differentiated to macrophage-type cells by incubation with phorbol myristate acetate (PMA; 100 ng/mL) for 48 to 72 hr. Cells are pre-incubated with final concentrations of test compound for 2 hr and are then stimulated with 0.1 μg/mL of LPS (from E. Coli: O111:B4, Sigma) for 4 hr. The supernatant is collected for determination of TNFα and IL-8 concentrations by sandwich ELISA (Duo-set, R&D systems). The inhibition of TNFα production is calculated as a percentage of that achieved by 10 μg/mL of BIRB796 at each concentration of test compound by comparison against vehicle control. The relative 50% effective concentration (REC50) is determined from the resultant concentration-response curve. The inhibition of IL-8 production is calculated at each concentration of test compound by comparison with vehicle control. The 50% inhibitory concentration (IC50) is determined from the resultant concentration-response curve.

The test system of experiment [2] is PBMCs. Nature of the experiment: LPS-induced TNFα/IL-8 release in PBMC cells. It is filed as cell-based. Conditions: Homo sapiens, LPS-stimulated PBMCs, IL-8, read-out: IC50 Values for Inhibition of Cytokine Release PBMCs IL-8. How it is done:
Peripheral blood mononuclear cells (PBMCs) from healthy subjects are separated from whole blood using a density gradient (Lymphoprep, Axis-Shield Healthcare). The PBMCs are seeded in 96 well plates and treated with compounds at the desired concentration for 2 hours before addition of 1 ng/mL LPS (Escherichia Coli 0111:B4 from Sigma Aldrich) for 24 hours under normal tissue culture conditions (37° C., 5% CO2). The supernatant is harvested for determination of IL-8 and TNFα concentrations by sandwich ELISA (Duo-set, R&D systems) and read on the fluorescence microplate reader (Varioskan® Flash, ThermoFisher Scientific). The concentration at 50% inhibition (IC50) of IL-8 and TNFα production is calculated from the dose response curve.

In a further experiment the target is c-Src (Homo sapiens (Human), UniProt P12931). Nature of the experiment: c-Src enzyme inhibition (Z-LYTE FRET). It is filed as biochemical. As for the experimental part: (§1) The enzyme inhibitory activities of compounds disclosed herein are determined by FRET using synthetic peptides labelled with both donor and acceptor fluorophores (Z-LYTE, Invitrogen Ltd., Paisley, UK).
Chain of c-Src (P12931 whole entry, looked up): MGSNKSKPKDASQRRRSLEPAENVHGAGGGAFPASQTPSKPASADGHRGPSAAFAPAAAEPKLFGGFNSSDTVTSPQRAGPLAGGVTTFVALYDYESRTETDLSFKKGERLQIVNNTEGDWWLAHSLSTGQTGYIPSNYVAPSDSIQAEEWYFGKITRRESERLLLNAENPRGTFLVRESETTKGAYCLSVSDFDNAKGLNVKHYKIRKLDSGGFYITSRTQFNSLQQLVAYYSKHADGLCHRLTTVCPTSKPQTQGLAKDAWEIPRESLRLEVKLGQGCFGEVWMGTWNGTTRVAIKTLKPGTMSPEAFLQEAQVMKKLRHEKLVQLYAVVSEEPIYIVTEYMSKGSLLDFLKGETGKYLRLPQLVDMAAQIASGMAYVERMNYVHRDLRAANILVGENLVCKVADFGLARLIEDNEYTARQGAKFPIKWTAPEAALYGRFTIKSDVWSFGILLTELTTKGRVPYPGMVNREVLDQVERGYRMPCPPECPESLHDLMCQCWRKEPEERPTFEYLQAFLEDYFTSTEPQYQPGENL
(§2) The inhibitory activities of compounds of the invention against c-Src and Syk enzymes (Invitrogen), are evaluated in a similar fashion to that described hereinabove. The relevant enzyme (3000 ng/mL or 2000 ng/mL respectively, 2.5 μL) is incubated with the test compound (either 4 μg/mL, 0.4 μg/mL, 0.04 μg/mL, or 0.004 μg/mL, 2.5 μL each) for 2 hr at RT. The FRET peptides (8 μM, 2.5 μL), and appropriate ATP solutions (2.5 μL, 800 μM for c-Src, and 60 μM ATP for Syk) are then added to the enzymes/compound mixtures and incubated for 1 hr. Development reagent (protease, 5 μL) is added for 1 hr prior to detection in a fluorescence microplate reader (Varioskan® Flash, ThermoFisher Scientific).
(§3) In all cases, the site-specific protease cleaves non-phosphorylated peptide only and eliminates the FRET signal. Phosphorylation levels of each reaction are calculated using the ratio of coumarin emission (donor) over fluorescein emission (acceptor), for which high ratios indicate high phosphorylation and low ratios indicate low phosphorylation levels. The percentage inhibition of each reaction is calculated relative to non-inhibited control and the 50% inhibitory concentration (IC50 value) is then calculated from the concentration-response curve.

Experiment [3] relates to PBMCs. Nature of the experiment: IL-2 and IFN gamma release in CD3/CD28 stimulated PBMC cells. It is filed as cell-based. The conditions noted are these: Homo sapiens. How it is done: PBMCs from healthy subjects are separated from whole blood using a density gradient (Lymphoprep, Axis-Shield Healthcare). Cells are added to a 96 well plate pre-coated with a mixture of CD3/CD38 monoclonal antibodies (0.3 μg/mL eBioscience and 3 μg/mL BD Pharmingen respectively). Compound at the desired concentration is then added to the wells and the plate left for 3 days under normal tissue culture conditions. Supernatants are harvested and IL-2 and IFN gamma release determined by Sandwich ELISA (Duo-set, R&D System). The IC50 is determined from the dose response curve.

In a further experiment the test system is HT29 cells. As to the kind of experiment: IL-1β-induced IL-8 release in HT29 cells. It is filed as cell-based. The conditions noted are these: Homo sapiens, HT-29, IL-1β-stimulated HT29 cells, read-out: IC50 Values for Inhibition of Cytokine Release HT29 cells IL-8. As for the experimental part: HT29 cells, a human colon adenocarcinoma cell line, are plated in a 96 well plate (24 hrs) and pre-treated with compounds at the desired concentration for 2 hours before addition of 5 ng/mL of IL-1β (Abcam) for 24 hours. Supernatants are harvested for IL-8 quantification by Sandwich ELISA (Duo-set, R&D System). The IC50 is determined from the dose response curve.

The next experiment addresses Syk (Homo sapiens (Human), UniProt P43405). As to the kind of experiment: Syk enzyme inhibition (Z-LYTE FRET). It is filed as biochemical. As for the experimental part:
as §1, §2, §3

The next experiment addresses GSK 3α (Homo sapiens (Human), UniProt P49840). As to the kind of experiment: GSK 3α enzyme inhibition (Z-LYTE FRET). It is filed as biochemical. Conditions: read-out: IC50 Values for Enzyme Inhibition GSK3α. How it is done: as §1
The following two assay variants can be used for determination of GSK 3α inhibition.
The inhibitory activities of compounds of the invention against the GSK 3α enzyme isoform (Invitrogen), are evaluated by determining the level of activation/phosphorylation of the target peptide. The GSK3-α protein (500 ng/mL, 2.5 μL) is mixed with the test compound (2.5 μL at either 4 μg/mL, 0.4 μg/mL, 0.04 μg/mL, or 0.004 μg/mL) for 2 hr at RT. The FRET peptide (8 μM, 2.5 μL), which is a phosphorylation target for GSK3α, and ATP (40 μM, 2.5 μL) are then added to the enzyme/compound mixture and the resulting mixture incubated for 1 hr. Development reagent (protease, 5 μL) is added for 1 hr prior to detection in a fluorescence microplate reader (Varioskan® Flash, ThermoFisher Scientific).
as §3
This method follows the same steps as Method 1 above, but utilises a shorter period of mixing of the test compound (105 minutes instead of 2 hours) with the GSK3-α protein.

For experiment [4], the target named is p38 MAPKα isoform (MAPK14) (Homo sapiens (Human), UniProt Q16539). As to the kind of experiment: p38 MAPKα enzyme inhibition (Z-LYTE FRET). It is filed as biochemical. As for the experimental part:
as §1
The following two assay variants can be used for determination of p38 MAPKα inhibition.
The inhibitory activities of test compounds against the p38 MAPKα isoform (MAPK14: Invitrogen), are evaluated indirectly by determining the level of activation/phosphorylation of the down-stream molecule, MAPKAP-K2. The p38 MAPKα protein (80 ng/mL, 2.5 μL) is mixed with the test compound (2.5 μL of either 4 μg/mL, 0.4 μg/mL, 0.04 μg/mL or 0.004 μg/mL) for 2 hr at RT. […] The mixture is incubated for 1 hr at RT. Development reagent (protease, 5 μL) is added for 1 hr prior to detection in a fluorescence microplate reader (Varioskan® Flash, ThermoFisher Scientific).
This method follows the same steps as Method 1 above, but utilises a higher concentration of the p38 MAPKα protein (2.5 μL of 200 ng/mL protein instead of 2.5 μL of 80 ng/mL protein) for mixing with the test compound.
as §3

Where [5] appears, read: IL-2, read-out: IC50 Values for Inhibition of Cytokine Release PBMCs IL-2.
Where [6] appears, read: TNBS mice, conducted over 2 days.

The term IC50 denotes the point on the concentration scale where inhibition reaches its midpoint.

Each structure is given as a SMILES string. Like-named read-outs stand apart in the source and are kept apart here.

Chain of GSK 3α (P49840 whole entry): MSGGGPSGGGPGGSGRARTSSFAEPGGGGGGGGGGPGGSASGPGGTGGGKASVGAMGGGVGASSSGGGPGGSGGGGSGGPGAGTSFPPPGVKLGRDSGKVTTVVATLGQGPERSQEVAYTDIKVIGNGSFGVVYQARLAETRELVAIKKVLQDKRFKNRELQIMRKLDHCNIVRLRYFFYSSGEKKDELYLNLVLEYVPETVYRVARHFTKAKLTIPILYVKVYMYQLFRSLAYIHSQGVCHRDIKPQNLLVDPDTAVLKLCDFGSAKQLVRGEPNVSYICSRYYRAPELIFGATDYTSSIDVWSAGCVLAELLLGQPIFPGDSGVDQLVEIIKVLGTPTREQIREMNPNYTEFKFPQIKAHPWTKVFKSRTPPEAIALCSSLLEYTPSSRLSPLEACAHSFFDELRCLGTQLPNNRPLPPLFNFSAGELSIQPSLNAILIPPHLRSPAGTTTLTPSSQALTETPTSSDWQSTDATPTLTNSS
Chain of p38 MAPKα isoform (MAPK14) (Q16539 whole entry, canonical isoform): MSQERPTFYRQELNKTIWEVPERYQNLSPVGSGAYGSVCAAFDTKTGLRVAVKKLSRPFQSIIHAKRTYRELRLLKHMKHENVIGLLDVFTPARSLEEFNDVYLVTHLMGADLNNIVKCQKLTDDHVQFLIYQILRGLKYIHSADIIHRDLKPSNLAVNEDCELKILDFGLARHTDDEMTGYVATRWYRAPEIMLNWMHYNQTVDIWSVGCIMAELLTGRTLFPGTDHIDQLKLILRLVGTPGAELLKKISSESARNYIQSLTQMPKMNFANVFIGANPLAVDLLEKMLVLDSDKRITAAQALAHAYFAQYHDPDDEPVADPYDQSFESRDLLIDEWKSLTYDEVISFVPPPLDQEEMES

With `Nc1ccc(O)c(C(=O)O)c1` [Example 5-ASA, 5-aminosalicylic acid, reference compound], the Ulcer grade in experiment [1] (TNBS mice, reference item, dose not given, vehicle 3.7 ± 0.3) worked out at 3.0 ± 0.5. This compound gave an LP inflammation in experiment [1] (TNBS mice, reference item, dose not given, vehicle 4.1 ± 0.2) of 2.3 ± 0.3.
As for `COc1cc(Nc2nccc(Oc3ccc(NC(=O)Nc4cc([Si](C)(C)C)nn4-c4ccc(C)cc4)c4ccccc34)n2)cc(OCCN2CCOCC2)c1` [Example 13, 1-(4-((2-((3-Methoxy-5-(2-morpholinoethoxy)phenyl)amino)pyrimidin-4-yl)oxy)naphthalen-1-yl)-3-(1-(p-tolyl)-3-(trimethylsilyl)-1H-pyrazol-5-yl)urea], the IC50 in the experiment on d-U937 cells (IL-8, read-out: IC50 Values for Inhibition of Cytokine Release dU937 cells IL-8) stood at 0.0014 µM; in the experiment with d-U937 cells (TNFα, method describes REC50 relative to BIRB796, read-out: IC50 Values for Inhibition of Cytokine Release dU937 cells TNFα) it was 0.0011 µM; with PBMCs [2], 0.0023 µM; against c-Src, 0.17 µM; in the experiment with PBMCs [3] (setting [5]), 0.0039 µM; in the experiment with HT29 cells, 0.0043 µM. Moreover, the IC50 against Syk was 0.106 µM; at GSK 3α, 5.64 µM; in experiment [4] it was above 1 µM.
As to `COCCOCCOCCOc1cc(Nc2nccc(Oc3ccc(NC(=O)Nc4cc([Si](C)(C)C)nn4-c4ccc(C)cc4)c4ccccc34)n2)cc(OC)c1` [Example 21, 1-(4-((2-((3-Methoxy-5-(2-(2-(2-methoxyethoxyl)ethoxy)ethoxy)phenyl)amino)pyrimidin-4-yl)oxy)naphthalen-1-yl)-3-(1-(p-tolyl)-3-(trimethylsilyl)-1H-pyrazol-5-yl)urea], the IC50 with PBMCs [2] turned out to be 0.002 µM; on c-Src, 0.017 µM; in the experiment with PBMCs [3] (IFNγ, read-out: IC50 Values for Inhibition of Cytokine Release PBMCs IFNγ), 0.002 µM; in the experiment with PBMCs [3] (setting [5]), 0.137 µM; in the experiment with HT29 cells, 0.002 µM; against Syk, 0.089 µM. Moreover, the results for the IC50 (on GSK 3α; in experiment [4]) were 11.6 µM and 0.204 µM, respectively. Moreover, the Ulcer grade in experiment [1] (TNBS mice, 1 mg/kg oral BID, 2 days, vehicle 3.7 ± 0.3, non-diseased 0 ± 0) is given as 3.3 ± 0.5; in experiment [1] (TNBS mice, 5 mg/kg oral BID, 2 days, vehicle 3.7 ± 0.3, non-diseased 0 ± 0) it was 3.2 ± 0.4. The LP inflammation was 3.8 ± 0.3 in [1] (TNBS mice, 1 mg/kg oral BID, 2 days, vehicle 4.1 ± 0.2, non-diseased 0.3 ± 0.2) and 2.7 ± 0.3 in [1] (TNBS mice, 5 mg/kg oral BID, 2 days, vehicle 4.1 ± 0.2, non-diseased 0.3 ± 0.2). The “activity in in vivo model of colonic inflammation (histopathology analysis)” value in experiment [1] (setting [6]) is reported as “significant activity”. Further, the “inflammatory cell infiltrate in the reticular and laminar propria zone” value in experiment [1] (setting [6]) was “marked reduction”. In [1] (dosed orally at 5 mg/kg), the “ulcer grade and epithelial repair compared to the vehicle control” value is given as “marked improvements”.

For the origin of these results see patent US9783556B2, “Kinase inhibitors” (RESPIVERT LIMITED, priority 2012, dated 2017).
